The values below come from ChEMBL document CHEMBL3351784, “Synthesis and evaluation of anti-inflammatory activity of derivatives of the marine natural products fuscol and eunicol” (Bioorg Med Chem Lett, 2014).

Data set [1] relates to Mus musculus. In words: Toxicity in mouse at 0.1 mg/ear administered topically. In kind it is organism-based. To be noted: in vivo, topical_or_ocular.
Data set [2] concerns Mus musculus. In words: Antiinflammatory activity in mouse assessed as reduction in PMA-induced ear edema at 0.1 mg/ear administered topically measured after 24 hrs relative to control. The format is functional. The arrangement: scale not given: the % may be the effect or the level left.
Data set [3] has as its system Mus musculus. In words: Antiinflammatory activity in mouse assessed as reduction in PMA-induced ear edema at 3 mg/ear administered topically relative to control. The format is functional. The arrangement: scale not given: the % may be the effect or the level left.

Turning to `C/C(=C\C=C\C(C)(C)O)C(C)C`, the Activity result in the data set with Mus musculus [1] is “Non-toxic”; in the data set with Mus musculus [2] it was 80%.
Taken in the same sequence, the figures for `CC1=CCC(/C(C)=C/C=C/C(C)(C)O)CC1` (stereo not given) were “Non-toxic” and 58%.
Taken in the same sequence, the figures for `C/C(=C\C=C\C(C)(C)O)C1CCc2ccccc2C1` (stereo not given) were “Non-toxic” and 58%.
With `C/C(=C\C=C\C(C)(C)O)C1CC[C@@H](C)C[C@H]1O` (stereo not given in full), the Activity entry is “Non-toxic” in the data set on Mus musculus [1] and 71% in the data set with Mus musculus [2].
Take `C/C(=C\C=C\C(C)(C)O)C1CCCCC1`: the Activity result in the data set on Mus musculus [1] is given as “Non-toxic”; in the data set with Mus musculus [2], 62%.
Taken in the same sequence, the figures for `C=C[C@@]1(C)CC[C@H](/C(C)=C/C=C/C(C)(C)O)C[C@@H]1C(=C)C` [FUSCOL] were “Non-toxic” and 46%.
For the molecule `C/C(=C\C=C\C(C)(C)O)c1ccccc1`, the results for the Activity entry with Mus musculus [1] and in the data set with Mus musculus [2] were “Non-toxic” and 0%, respectively.
Take `COc1ccc2c(c1)c(CC(=O)O)c(C)n2C(=O)c1ccc(Cl)cc1` [INDOMETHACIN]: the Activity with Mus musculus [3] stood at 51%.
